The NIST ThermoML archive (doi:10.1021/acs.jced.5b00980)
Numbers after ± are expanded uncertainties.

experiment: activity coefficient (dimensionless); of the first substance listed, at infinite dilution; xn = mol fraction of the nth substance listed; conditions: 348.15 K; 100 kPa; Liquid; Chromatography; x1 = 0

SMILES | activity coefficient
CC(C)=O [acetone] + CCCC[P+](CC)(CCCC)CCCC.CCOP(=O)([O-])OCC | 0.822 ± 0.053
CC#N [acetonitrile] + CCCC[P+](CC)(CCCC)CCCC.CCOP(=O)([O-])OCC | 0.467 ± 0.036
c1ccccc1 [benzene] + CCCC[P+](CC)(CCCC)CCCC.CCOP(=O)([O-])OCC | 0.855 ± 0.055
C1CCCCCC1 [cycloheptane] + CCCC[P+](CC)(CCCC)CCCC.CCOP(=O)([O-])OCC | 2.37 ± 0.16
C1CCCCC1 [cyclohexane] + CCCC[P+](CC)(CCCC)CCCC.CCOP(=O)([O-])OCC | 2.09 ± 0.14
C1=CCCCC1 [cyclohexene] + CCCC[P+](CC)(CCCC)CCCC.CCOP(=O)([O-])OCC | 1.67 ± 0.11
C1CCCCCCC1 [cyclooctane] + CCCC[P+](CC)(CCCC)CCCC.CCOP(=O)([O-])OCC | 2.69 ± 0.18
C1CCCC1 [cyclopentane] + CCCC[P+](CC)(CCCC)CCCC.CCOP(=O)([O-])OCC | 1.77 ± 0.12
CCCCCCCCCC [decane] + CCCC[P+](CC)(CCCC)CCCC.CCOP(=O)([O-])OCC | 6.49 ± 0.44
CCOCC [diethyl ether] + CCCC[P+](CC)(CCCC)CCCC.CCOP(=O)([O-])OCC | 1.75 ± 0.12
CC(C)OC(C)C [diisopropyl ether] + CCCC[P+](CC)(CCCC)CCCC.CCOP(=O)([O-])OCC | 2.69 ± 0.18
CCCOCCC [dipropyl ether] + CCCC[P+](CC)(CCCC)CCCC.CCOP(=O)([O-])OCC | 2.51 ± 0.17
CCO [ethanol] + CCCC[P+](CC)(CCCC)CCCC.CCOP(=O)([O-])OCC | 0.038
CCc1ccccc1 [ethylbenzene] + CCCC[P+](CC)(CCCC)CCCC.CCOP(=O)([O-])OCC | 1.49 ± 0.1
CCCCCCC [heptane] + CCCC[P+](CC)(CCCC)CCCC.CCOP(=O)([O-])OCC | 3.87 ± 0.26
C=CCCCC [hex-1-ene] + CCCC[P+](CC)(CCCC)CCCC.CCOP(=O)([O-])OCC | 2.49 ± 0.17
CCCCCC [hexane] + CCCC[P+](CC)(CCCC)CCCC.CCOP(=O)([O-])OCC | 3.26 ± 0.22
CO [methanol] + CCCC[P+](CC)(CCCC)CCCC.CCOP(=O)([O-])OCC | 0.025
CC1CCCCC1 [methylcyclohexane] + CCCC[P+](CC)(CCCC)CCCC.CCOP(=O)([O-])OCC | 2.52 ± 0.17

same assay, conditions: 358.15 K; 100 kPa; Liquid; Chromatography; x1 = 0

SMILES | activity coefficient
Cc1ccccc1C [1,2-dimethylbenzene] + CCCC[P+](CC)(CCCC)CCCC.CCOP(=O)([O-])OCC | 1.47 ± 0.1
Cc1cccc(C)c1 [1,3-dimethylbenzene] + CCCC[P+](CC)(CCCC)CCCC.CCOP(=O)([O-])OCC | 1.61 ± 0.11
Cc1ccc(C)cc1 [1,4-dimethylbenzene] + CCCC[P+](CC)(CCCC)CCCC.CCOP(=O)([O-])OCC | 1.57 ± 0.1
C1COCCO1 [1,4-dioxane] + CCCC[P+](CC)(CCCC)CCCC.CCOP(=O)([O-])OCC | 1.03 ± 0.06
C=CCCCCCCCC [1-decene] + CCCC[P+](CC)(CCCC)CCCC.CCOP(=O)([O-])OCC | 4.81 ± 0.33
C=CCCCCC [1-heptene] + CCCC[P+](CC)(CCCC)CCCC.CCOP(=O)([O-])OCC | 2.93 ± 0.2
C#CCCCCC [1-heptyne] + CCCC[P+](CC)(CCCC)CCCC.CCOP(=O)([O-])OCC | 1.13 ± 0.07
C#CCCCC [1-hexyne] + CCCC[P+](CC)(CCCC)CCCC.CCOP(=O)([O-])OCC | 0.979 ± 0.061
CCC[N+](=O)[O-] [1-nitropropane] + CCCC[P+](CC)(CCCC)CCCC.CCOP(=O)([O-])OCC | 0.523 ± 0.039
C#CCCCCCC [1-octyne] + CCCC[P+](CC)(CCCC)CCCC.CCOP(=O)([O-])OCC | 1.33 ± 0.09
C=CCCC [1-pentene] + CCCC[P+](CC)(CCCC)CCCC.CCOP(=O)([O-])OCC | 2.11 ± 0.14
C#CCCC [1-pentyne] + CCCC[P+](CC)(CCCC)CCCC.CCOP(=O)([O-])OCC | 0.833 ± 0.054
CC(C)CC(C)(C)C [2,2,4-trimethylpentane] + CCCC[P+](CC)(CCCC)CCCC.CCOP(=O)([O-])OCC | 4.05 ± 0.28
CCC(C)(C)C [2,2-dimethylbutane] + CCCC[P+](CC)(CCCC)CCCC.CCOP(=O)([O-])OCC | 3.14 ± 0.21
CCOC(C)(C)C [2-ethoxy-2-methylpropane] + CCCC[P+](CC)(CCCC)CCCC.CCOP(=O)([O-])OCC | 2.51 ± 0.17
CCCCC(C)=O [2-hexanone] + CCCC[P+](CC)(CCCC)CCCC.CCOP(=O)([O-])OCC | 1.15 ± 0.07
CCC(C)(C)OC [2-methoxy-2-methylbutane] + CCCC[P+](CC)(CCCC)CCCC.CCOP(=O)([O-])OCC | 2.02 ± 0.14
COC(C)(C)C [2-methoxy-2-methylpropane] + CCCC[P+](CC)(CCCC)CCCC.CCOP(=O)([O-])OCC | 1.82 ± 0.12
CCCC(=O)CC [3-hexanone] + CCCC[P+](CC)(CCCC)CCCC.CCOP(=O)([O-])OCC | 1.2 ± 0.08
CCC(C)CC [3-methylpentane] + CCCC[P+](CC)(CCCC)CCCC.CCOP(=O)([O-])OCC | 3.02 ± 0.21

SMILES | activity coefficient
CC(C)=O [acetone] + CCCC[P+](CC)(CCCC)CCCC.CCOP(=O)([O-])OCC | 0.814 ± 0.053
CC#N [acetonitrile] + CCCC[P+](CC)(CCCC)CCCC.CCOP(=O)([O-])OCC | 0.468 ± 0.037
c1ccccc1 [benzene] + CCCC[P+](CC)(CCCC)CCCC.CCOP(=O)([O-])OCC | 0.847 ± 0.054
C1CCCCCC1 [cycloheptane] + CCCC[P+](CC)(CCCC)CCCC.CCOP(=O)([O-])OCC | 2.32 ± 0.16
C1CCCCC1 [cyclohexane] + CCCC[P+](CC)(CCCC)CCCC.CCOP(=O)([O-])OCC | 2.05 ± 0.14
C1=CCCCC1 [cyclohexene] + CCCC[P+](CC)(CCCC)CCCC.CCOP(=O)([O-])OCC | 1.65 ± 0.11
C1CCCCCCC1 [cyclooctane] + CCCC[P+](CC)(CCCC)CCCC.CCOP(=O)([O-])OCC | 2.63 ± 0.18
C1CCCC1 [cyclopentane] + CCCC[P+](CC)(CCCC)CCCC.CCOP(=O)([O-])OCC | 1.74 ± 0.12
CCCCCCCCCC [decane] + CCCC[P+](CC)(CCCC)CCCC.CCOP(=O)([O-])OCC | 6.26 ± 0.43
CCOCC [diethyl ether] + CCCC[P+](CC)(CCCC)CCCC.CCOP(=O)([O-])OCC | 1.73 ± 0.12
CC(C)OC(C)C [diisopropyl ether] + CCCC[P+](CC)(CCCC)CCCC.CCOP(=O)([O-])OCC | 2.65 ± 0.18
CCCOCCC [dipropyl ether] + CCCC[P+](CC)(CCCC)CCCC.CCOP(=O)([O-])OCC | 2.47 ± 0.17
CCO [ethanol] + CCCC[P+](CC)(CCCC)CCCC.CCOP(=O)([O-])OCC | 0.042
CCc1ccccc1 [ethylbenzene] + CCCC[P+](CC)(CCCC)CCCC.CCOP(=O)([O-])OCC | 1.46 ± 0.1
CCCCCCC [heptane] + CCCC[P+](CC)(CCCC)CCCC.CCOP(=O)([O-])OCC | 3.78 ± 0.26
C=CCCCC [hex-1-ene] + CCCC[P+](CC)(CCCC)CCCC.CCOP(=O)([O-])OCC | 2.44 ± 0.17
CCCCCC [hexane] + CCCC[P+](CC)(CCCC)CCCC.CCOP(=O)([O-])OCC | 3.21 ± 0.22
CO [methanol] + CCCC[P+](CC)(CCCC)CCCC.CCOP(=O)([O-])OCC | 0.028
CC1CCCCC1 [methylcyclohexane] + CCCC[P+](CC)(CCCC)CCCC.CCOP(=O)([O-])OCC | 2.48 ± 0.17

same assay, conditions: 368.15 K; 100 kPa; Liquid; Chromatography; x1 = 0

SMILES | activity coefficient
Cc1ccccc1C [1,2-dimethylbenzene] + CCCC[P+](CC)(CCCC)CCCC.CCOP(=O)([O-])OCC | 1.45 ± 0.1
Cc1cccc(C)c1 [1,3-dimethylbenzene] + CCCC[P+](CC)(CCCC)CCCC.CCOP(=O)([O-])OCC | 1.59 ± 0.11
Cc1ccc(C)cc1 [1,4-dimethylbenzene] + CCCC[P+](CC)(CCCC)CCCC.CCOP(=O)([O-])OCC | 1.55 ± 0.1
C1COCCO1 [1,4-dioxane] + CCCC[P+](CC)(CCCC)CCCC.CCOP(=O)([O-])OCC | 1.02 ± 0.06
C=CCCCCCCCC [1-decene] + CCCC[P+](CC)(CCCC)CCCC.CCOP(=O)([O-])OCC | 4.69 ± 0.32
C=CCCCCC [1-heptene] + CCCC[P+](CC)(CCCC)CCCC.CCOP(=O)([O-])OCC | 2.89 ± 0.2
C#CCCCCC [1-heptyne] + CCCC[P+](CC)(CCCC)CCCC.CCOP(=O)([O-])OCC | 1.17 ± 0.07
C#CCCCC [1-hexyne] + CCCC[P+](CC)(CCCC)CCCC.CCOP(=O)([O-])OCC | 1.02 ± 0.06
CCC[N+](=O)[O-] [1-nitropropane] + CCCC[P+](CC)(CCCC)CCCC.CCOP(=O)([O-])OCC | 0.53 ± 0.039
C#CCCCCCC [1-octyne] + CCCC[P+](CC)(CCCC)CCCC.CCOP(=O)([O-])OCC | 1.38 ± 0.09
C=CCCC [1-pentene] + CCCC[P+](CC)(CCCC)CCCC.CCOP(=O)([O-])OCC | 2.09 ± 0.14
C#CCCC [1-pentyne] + CCCC[P+](CC)(CCCC)CCCC.CCOP(=O)([O-])OCC | 0.866 ± 0.055
CC(C)CC(C)(C)C [2,2,4-trimethylpentane] + CCCC[P+](CC)(CCCC)CCCC.CCOP(=O)([O-])OCC | 3.97 ± 0.27
CCC(C)(C)C [2,2-dimethylbutane] + CCCC[P+](CC)(CCCC)CCCC.CCOP(=O)([O-])OCC | 3.08 ± 0.21
CCOC(C)(C)C [2-ethoxy-2-methylpropane] + CCCC[P+](CC)(CCCC)CCCC.CCOP(=O)([O-])OCC | 2.47 ± 0.17
CCCCC(C)=O [2-hexanone] + CCCC[P+](CC)(CCCC)CCCC.CCOP(=O)([O-])OCC | 1.14 ± 0.07
CCC(C)(C)OC [2-methoxy-2-methylbutane] + CCCC[P+](CC)(CCCC)CCCC.CCOP(=O)([O-])OCC | 2.01 ± 0.14
COC(C)(C)C [2-methoxy-2-methylpropane] + CCCC[P+](CC)(CCCC)CCCC.CCOP(=O)([O-])OCC | 1.8 ± 0.12
CCCC(=O)CC [3-hexanone] + CCCC[P+](CC)(CCCC)CCCC.CCOP(=O)([O-])OCC | 1.2 ± 0.08
CCC(C)CC [3-methylpentane] + CCCC[P+](CC)(CCCC)CCCC.CCOP(=O)([O-])OCC | 2.98 ± 0.2

SMILES | activity coefficient
CC(C)=O [acetone] + CCCC[P+](CC)(CCCC)CCCC.CCOP(=O)([O-])OCC | 0.809 ± 0.052
CC#N [acetonitrile] + CCCC[P+](CC)(CCCC)CCCC.CCOP(=O)([O-])OCC | 0.469 ± 0.037
c1ccccc1 [benzene] + CCCC[P+](CC)(CCCC)CCCC.CCOP(=O)([O-])OCC | 0.84 ± 0.054
C1CCCCCC1 [cycloheptane] + CCCC[P+](CC)(CCCC)CCCC.CCOP(=O)([O-])OCC | 2.27 ± 0.15
C1CCCCC1 [cyclohexane] + CCCC[P+](CC)(CCCC)CCCC.CCOP(=O)([O-])OCC | 2.01 ± 0.14
C1=CCCCC1 [cyclohexene] + CCCC[P+](CC)(CCCC)CCCC.CCOP(=O)([O-])OCC | 1.63 ± 0.11
C1CCCCCCC1 [cyclooctane] + CCCC[P+](CC)(CCCC)CCCC.CCOP(=O)([O-])OCC | 2.57 ± 0.17
C1CCCC1 [cyclopentane] + CCCC[P+](CC)(CCCC)CCCC.CCOP(=O)([O-])OCC | 1.71 ± 0.11
CCCCCCCCCC [decane] + CCCC[P+](CC)(CCCC)CCCC.CCOP(=O)([O-])OCC | 6.05 ± 0.41
CCOCC [diethyl ether] + CCCC[P+](CC)(CCCC)CCCC.CCOP(=O)([O-])OCC | 1.71 ± 0.11
CC(C)OC(C)C [diisopropyl ether] + CCCC[P+](CC)(CCCC)CCCC.CCOP(=O)([O-])OCC | 2.59 ± 0.18
CCCOCCC [dipropyl ether] + CCCC[P+](CC)(CCCC)CCCC.CCOP(=O)([O-])OCC | 2.43 ± 0.17
CCO [ethanol] + CCCC[P+](CC)(CCCC)CCCC.CCOP(=O)([O-])OCC | 0.045
CCc1ccccc1 [ethylbenzene] + CCCC[P+](CC)(CCCC)CCCC.CCOP(=O)([O-])OCC | 1.44 ± 0.09
CCCCCCC [heptane] + CCCC[P+](CC)(CCCC)CCCC.CCOP(=O)([O-])OCC | 3.7 ± 0.25
C=CCCCC [hex-1-ene] + CCCC[P+](CC)(CCCC)CCCC.CCOP(=O)([O-])OCC | 2.4 ± 0.16
CCCCCC [hexane] + CCCC[P+](CC)(CCCC)CCCC.CCOP(=O)([O-])OCC | 3.15 ± 0.21
CO [methanol] + CCCC[P+](CC)(CCCC)CCCC.CCOP(=O)([O-])OCC | 0.03
CC1CCCCC1 [methylcyclohexane] + CCCC[P+](CC)(CCCC)CCCC.CCOP(=O)([O-])OCC | 2.44 ± 0.17
